This passage reports EC50 results from patent publication US6660752B2, “2,6-Substituted chroman derivatives useful as beta-3 adrenoreceptor agonists” (Bayer Pharmaceuticals Corporation, priority 2001, dated 2003).

Usually EC50 stands for the concentration that produces a half-maximal response.

For one test, the target named is T1, human beta-3-adrenergic receptor (Homo sapiens, UniProt P13945).
T1 construct: stably express full-length human beta-3-adrenergic receptor; expressed in transfected cells; host or cells: Chinese hamster ovary (CHO) cells
T1 sequence (P13945 whole entry): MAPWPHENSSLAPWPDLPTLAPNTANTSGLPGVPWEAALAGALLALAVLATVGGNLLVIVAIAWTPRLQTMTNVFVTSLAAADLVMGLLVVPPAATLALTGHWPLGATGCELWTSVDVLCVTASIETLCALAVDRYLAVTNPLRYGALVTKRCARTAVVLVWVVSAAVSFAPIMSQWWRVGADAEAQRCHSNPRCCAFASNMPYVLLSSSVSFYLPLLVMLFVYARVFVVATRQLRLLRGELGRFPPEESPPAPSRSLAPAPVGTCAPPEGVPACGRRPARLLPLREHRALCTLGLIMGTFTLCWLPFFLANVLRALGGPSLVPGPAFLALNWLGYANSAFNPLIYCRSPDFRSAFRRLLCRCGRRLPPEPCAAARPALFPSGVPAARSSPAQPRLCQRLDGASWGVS
Kind of test: cAMP production (beta-3 agonist activity) in CHO cells stably expressing human beta-3-adrenergic receptor, cAMP SPA. In kind it is cell-based. The note with it: CHO cells expressing full-length human beta-3-adrenergic receptor, 30 min incubation, 10 μM to 3 nM, read-out: Beta-3 Agonistic Activity: Compounds with EC50 values >1 μM. The protocol: Chinese hamster ovary (CHO) cells that stably express full-length human beta-3-adrenergic receptor (Granneman et al., Mol. Pharmacol. 44:264-270, 1993) can be used in the following procedure. The cell line is grown in 90% F12 nutrient mixture (HAM), 10% fetal bovine serum, 100 units/ml penicillin G sodium, […] streptomycin sulfate, and 2 mM L-glutamine at 37° C. in 95% air and 5% CO2. The transfected cell line is maintained with G-418 (800 μg/ml).
To test the agonist activity, cells are exposed to test compound and then assayed for cAMP production. CHO cells (100 μl) are plated at 5×10^4 cells/well of a 96-well plate (Costar, Cambridge, Mass.) to achieve 70% confluency the next day. After overnight incubation at 37° C., media is removed and the cells are treated for 30 minutes at 37° C. with KRP buffer (120 mM NaCl, 5.1 mM KCl, 0.6 mM MgSO4.7H2O, 0.8 mM CaCl2.H2O, […] phosphate buffer, […] Hepes pH 7.4)+[…] IBMX ([…]), +1% DMSO, +/− test compounds ([…]). Test compounds are assayed from 10 μM to 3 nM with 3-fold serial dilutions. The control agonist, isoproterenol (10 mM stock in 1.1 mM ascorbate), is assayed by 3-fold dilution beginning at 1 μM. After a 30-minute incubation with the test compounds, the buffer/compound mixture is removed. The cells are lysed and cAMP levels are measured using the cAMP SPA screening assay system (Amersham, Arlington Heights, Ill.). The cAMP values are then plotted to determine the EC50 of each compound tested.
(Cyclic AMP is a second messenger, typically raised through Gs and lowered through Gi signalling.)
For `O[C@@H](CNC[C@H]1CCc2cc(-c3ccc(Cl)c(Cl)c3)ccc2O1)c1cccnc1` [Example 39, (1R)-2-({[(2R)-6-(3,4-dichlorophenyl)-3,4-dihydro-2H-chromen-2-yl]methyl}amino)-1-(3-pyridinyl)ethanol], the EC50 is > 1 µM.
Still for that read-out and setting: then `O[C@@H](CNC[C@H]1CCc2cc(-c3cccc(Cl)c3)ccc2O1)c1cccnc1` [Example 41], with > 1 µM; and `O=[N+]([O-])c1cccc(-c2ccc3c(c2)CC[C@H](CNC[C@H](O)c2cccnc2)O3)c1` [Example 42], with > 1 µM.
The same measure, in the same setting: then `COc1cccc(-c2ccc3c(c2)CC[C@H](CNC[C@H](O)c2cccnc2)O3)c1` [Example 43], with > 1 µM; and `Cc1ccc(-c2ccc3c(c2)CC[C@H](CNC[C@H](O)c2cccnc2)O3)cc1` [Example 45], with > 1 µM.

Still in this test, the particulars now being: CHO cells expressing full-length human beta-3-adrenergic receptor, 30 min incubation, 10 μM to 3 nM, read-out: Beta-3 Agonistic Activity: Compounds with EC50 values ≦1 μM.
For the compound `O=C(O)c1ccc(CCc2ccc3c(c2)CCC(CNC[C@H](O)c2cccnc2)O3)cc1` (stereo in doubt) [Example 215, 4-{2-[(2S)-2-({[(2R)-2-hydroxy-2-(3-pyridinyl)ethyl]amino}methyl)-3,4-dihydro-2H-chromen-6-yl]ethyl}benzoic Acid], the EC50 was ≤ 1 µM.
For the compound `O=C(O)c1cccc(CCc2ccc3c(c2)CCC(CNC[C@H](O)c2cccnc2)O3)c1` (stereo in doubt) [Example 216, 3-{2-[(2S)-2-({[(2R)-2-hydroxy-2-(3-pyridinyl)ethyl]amino}methyl)-3,4-dihydro-2H-chromen-6-yl]ethyl}benzoic Acid], the EC50 is ≤ 1 µM.
Still for that read-out and setting: as for `COCC(=O)NS(=O)(=O)c1cccc(-c2ccc3c(c2)CCC(CNC[C@H](O)c2cccnc2)O3)c1` (stereo in doubt) [Example 283, 3-[(2S)-2-({[(2R)-2-hydroxy-2-(3-pyridinyl)ethyl]amino}methyl)-3,4-dihydro-2H-chromen-6-yl]-N-(methoxyacetyl)benzenesulfonamide], the figure is ≤ 1 µM.
With `O[C@@H](CNC[C@H]1CCc2cc(I)ccc2O1)c1cccnc1` [Example 36, (1R)-2-({[(2R)-6-iodo-3,4-dihydro-2H-chromen-2-yl]methyl}amino)-1-(3-pyridinyl)ethanol], the EC50 is ≤ 1 µM.
On the same count and under the same terms, then `O[C@@H](CNC[C@H]1CCc2cc(-c3ccccc3C(F)(F)F)ccc2O1)c1cccnc1` [Example 40], with ≤ 1 µM; and `O[C@@H](CNC[C@H]1CCc2cc(-c3ccc(-c4ccccc4)cc3)ccc2O1)c1cccnc1` [Example 47], with ≤ 1 µM.
Same read-out and setting: then `O[C@@H](CNC[C@H]1CCc2cc(-c3ccc(F)cc3)ccc2O1)c1cccnc1` [Example 48], with ≤ 1 µM; and `O[C@@H](CNC[C@H]1CCc2cc(-c3cccc4ccccc34)ccc2O1)c1cccnc1` [Example 54], with ≤ 1 µM; and `COc1cc(-c2ccc3c(c2)CC[C@H](CNC[C@H](O)c2cccnc2)O3)ccc1C(=O)O` [Example 184, 4-[(2R)-2-({[(2R)-2-hydroxy-2-(3-pyridinyl)ethyl]amino}methyl)-3,4-dihydro-2H-chromen-6-yl]-2-methoxybenzoic acid], with ≤ 1 µM.
With `CCOc1cc(-c2ccc3c(c2)CC[C@H](CNC[C@H](O)c2cccnc2)O3)ccc1C(=O)O` [Example 185, 2-ethoxy-4-[(2R)-2-({[(2R)-2-hydroxy-2-(3-pyridinyl)ethyl]amino}methyl)-3,4-dihydro-2H-chromen-6-yl]benzoic acid], the EC50 is ≤ 1 µM.
Consider `CCCOc1cc(-c2ccc3c(c2)CC[C@H](CNC[C@H](O)c2cccnc2)O3)ccc1C(=O)O` [Example 186, 4-[(2R)-2-({[(2R)-2-hydroxy-2-(3-pyridinyl)ethyl]amino}methyl)-3,4-dihydro-2H-chromen-6-yl]-2-propoxybenzoic acid], for which the concentration for a half-maximal effect (EC50) is ≤ 1 µM.
Still for that read-out and setting: then `COCCOc1cc(-c2ccc3c(c2)CC[C@H](CNC[C@H](O)c2cccnc2)O3)ccc1C(=O)O` [Example 187, 4-[(2R)-2-({[(2R)-2-hydroxy-2-(3-pyridinyl)ethyl]amino}methyl)-3,4-dihydro-2H-chromen-6-yl]-2-(2-methoxyethoxy)benzoic acid], with ≤ 1 µM.
The same measure, in the same setting: then `CC(C)Oc1cc(-c2ccc3c(c2)CC[C@H](CNC[C@H](O)c2cccnc2)O3)ccc1C(=O)O` [Example 188, 4-[(2R)-2-({[(2R)-2-hydroxy-2-(3-pyridinyl)ethyl]amino}methyl)-3,4-dihydro-2H-chromen-6-yl]-2-isopropoxybenzoic acid], with ≤ 1 µM.
Still for that read-out and setting: as for `O=C(O)c1ccc(-c2ccc3c(c2)CC[C@H](CNC[C@H](O)c2cccnc2)O3)cc1Oc1ccccc1` [Example 192, 4-[(2R)-2-({[(2R)-2-hydroxy-2-(3-pyridinyl)ethyl]amino}methyl)-3,4-dihydro-2H-chromen-6-yl]-2-(phenyloxy)benzoic Acid], the figure is ≤ 1 µM; as for `O=C(O)c1ccc(-c2ccc3c(c2)CC[C@H](CNC[C@H](O)c2cccnc2)O3)cc1Oc1ccc(F)cc1` [Example 193, 2-(4-fluorophenoxy)-4-[(2R)-2-({[(2R)-2-hydroxy-2-(3-pyridinyl)ethyl]amino}methyl)-3,4-dihydro-2H-chromen-6-yl]benzoic acid], ≤ 1 µM; as for `O=C(O)c1ccc(-c2ccc3c(c2)CC[C@H](CNC[C@H](O)c2cccnc2)O3)cc1Oc1ccc(Cl)cc1` [Example 194, 2-(4-chlorophenoxy)-4-[(2R)-2-({[(2R)-2-hydroxy-2-(3-pyridinyl)ethyl]amino}methyl)-3,4-dihydro-2H-chromen-6-yl]benzoic acid], ≤ 1 µM.
In the case of `Cc1ccc(Oc2cc(-c3ccc4c(c3)CC[C@H](CNC[C@H](O)c3cccnc3)O4)ccc2C(=O)O)cc1` [Example 195, 4-[(2R)-2-({[(2R)-2-hydroxy-2-(3-pyridinyl)ethyl]amino}methyl)-3,4-dihydro-2H-chromen-6-yl]-2-(4-methylphenoxy)benzoic acid], the EC50 was ≤ 1 µM.
The same measure, in the same setting: then `COc1ccc(Oc2cc(-c3ccc4c(c3)CC[C@H](CNC[C@H](O)c3cccnc3)O4)ccc2C(=O)O)cc1` [Example 196, 4-[(2R)-2-({[(2R)-2-hydroxy-2-(3-pyridinyl)ethyl]amino}methyl)-3,4-dihydro-2H-chromen-6-yl]-2-(4-methoxyphenoxy)benzoic acid], with ≤ 1 µM.
Still for that read-out and setting: as for `CCOC(=O)c1ccc(Oc2cc(-c3ccc4c(c3)CC[C@H](CNC[C@H](O)c3cccnc3)O4)ccc2C(=O)O)cc1` [Example 197, 2-[4-(ethoxycarbonyl)phenoxy]-4-[(2R)-2-({[(2R)-2-hydroxy-2-(3-pyridinyl)ethyl]amino}methyl)-3,4-dihydro-2H-chromen-6-yl]benzoic acid], the figure is ≤ 1 µM; as for `CS(=O)(=O)c1ccc(Oc2cc(-c3ccc4c(c3)CC[C@H](CNC[C@H](O)c3cccnc3)O4)ccc2C(=O)O)cc1` [Example 198, 4-[(2R)-2-({[(2R)-2-hydroxy-2-(3-pyridinyl)ethyl]amino}methyl)-3,4-dihydro-2H-chromen-6-yl]-2-[4-(methylsulfonyl)phenoxy]benzoic acid], ≤ 1 µM.
For the compound `Cc1ccc(-c2cc(-c3ccc4c(c3)CC[C@H](CNC[C@H](O)c3cccnc3)O4)ccc2C(=O)O)cc1` [Example 205, 5-[(2R)-2-({[(2R)-2-hydroxy-2-(3-pyridinyl)ethyl]amino}methyl)-3,4-dihydro-2H-chromen-6-yl]-4′-methyl-1,1′-biphenyl-2-carboxylic Acid], the EC50 was ≤ 1 µM.
As to `CC(C)Cc1cc(-c2ccc3c(c2)CC[C@H](CNC[C@H](O)c2cccnc2)O3)ccc1C(=O)O` [Example 211, 4-[(2R)-2-({[(2R)-2-hydroxy-2-(3-pyridinyl)ethyl]amino}methyl)-3,4-dihydro-2H-chromen-6-yl]-2-isobutylbenzoic Acid], the EC50 was ≤ 1 µM.
The same measure, in the same setting: then `O=S(=O)(Nc1ncccn1)c1ccc(-c2ccc3c(c2)CC[C@H](CNC[C@H](O)c2cccnc2)O3)cc1` [Example 249A, 4-[(2R)-2-({[(2R)-2-hydroxy-2-(3-pyridinyl)ethyl]amino}methyl)-3,4-dihydro-2H-chromen-6-yl]-N-(2-pyrimidinyl)benzenesulfonamide], with ≤ 1 µM; and `O=S(=O)(Nc1ncccn1)c1ccc(-c2ccc3c(c2)CC[C@@H](CNCC(O)c2cccnc2)O3)cc1` (stereo partly drawn) [Example 249B, 4-[(2S)-2-({[-2-hydroxy-2-(3-pyridinyl)ethyl]amino}methyl)-3,4-dihydro-2H-chromen-6-yl]-N-(2-pyrimidinyl)benzenesulfonamide], with ≤ 1 µM.
Still for that read-out and setting: then `O=S(=O)(Nc1cnccc1C(F)(F)F)c1ccc(-c2ccc3c(c2)CC[C@H](CNC[C@H](O)c2cccnc2)O3)cc1` [Example 251], with ≤ 1 µM; and `CN1C(=O)c2ccc(NS(=O)(=O)c3cccc(-c4ccc5c(c4)CC[C@H](CNC[C@H](O)c4cccnc4)O5)c3)cc2C1=O` [Example 252], with ≤ 1 µM.
